According to patent publication US8138374B2, “Composition for external application to skin” (Shiseido Company, Ltd., priority 2007, dated 2012):

Experiment: Solubility evaluation (appearance and solubility)
Format: physicochemical
Details: for Solubility (%) Ethanol / Appearance (Room Temperature) / Solubility (%) Water: room temperature; for Solubility (%) Ethanol / Solubility (%) Water: judged by appearance, ">" = concentration at which dissolution was confirmed, actual solubility greater than or equal
Protocol: Furthermore, dissolution was evaluated based on appearance after preparing a solution at room temperature. The solubilities shown in the table indicate the concentration at which dissolution was confirmed, and those results shown with a “>” symbol in the table indicate the concentration at which the substance was confirmed to dissolve, and actual solubility is greater than or equal to this concentration.

Row | Solubility (%) Ethanol (ethanol) | Appearance (Room Temperature) | Solubility (%) Water (water) | solubility in ethanol (in words) (ethanol) | solubility in water (in words) (water) | Structure (SMILES)
1 | >14.1% | White crystal | >77% |  |  | CNCC(=O)N(C)C.Cl [N,N-dimethyl-2-(methylamino)acetoamide hydrochloride]
2 | >58% | Liquid | >55% |  |  | CNCC(=O)N(C)C [N,N-dimethyl-2-(methylamino)acetoamide]
3 | 0.10% |  | 71.5% | poorly soluble | high solubility | CNCC(=O)O [Sarcosine, reference compound]
